Publication PMC9603901, “Therapeutic Potential of Antimicrobial Peptide PN5 against Multidrug-Resistant E. coli and Anti-Inflammatory Activity in a Septic Mouse Model” (Microbiology Spectrum, 2022)
Values after ≈ are worked out from the molar mass of the structure shown. Read-outs that look alike come from different tables or passages of the source. Where no end group is shown, it is not given here.

Assays:
MDR E. coli ASEC 6 = tested on: MDR E. coli ASEC 6; design: method as in Asan hospital; key to susceptibility category: S: susceptible; R: resistant; I: intermediate; settings: ref Asan hospital, cited from earlier work; for MIC: ASEC 6 (ESBL), resistance information of clinical isolate; for susceptibility category: ASEC 6
MDR E. coli ASEC 12 = tested on: MDR E. coli ASEC 12; design: method as in Asan hospital; key to susceptibility category: S: susceptible; R: resistant; I: intermediate; settings: ref Asan hospital, cited from earlier work; for MIC: ASEC 12 (AmpC), resistance information of clinical isolate; for susceptibility category: ASEC 12
MDR E. coli ASEC 9 = tested on: MDR E. coli ASEC 9; design: method as in Asan hospital; key to susceptibility category: S: susceptible; R: resistant; I: intermediate; settings: ref Asan hospital, cited from earlier work; for MIC: ASEC 9 (ESBL), resistance information of clinical isolate; for susceptibility category: ASEC 9
MDR E. coli ASEC 5 = tested on: MDR E. coli ASEC 5; design: method as in Asan hospital; key to susceptibility category: S: susceptible; R: resistant; I: intermediate; settings: ref Asan hospital, cited from earlier work; for MIC: ASEC 5 (ESBL), resistance information of clinical isolate; for susceptibility category: ASEC 5
MDR E. coli ASEC 7 = tested on: MDR E. coli ASEC 7; design: method as in Asan hospital; key to susceptibility category: S: susceptible; R: resistant; I: intermediate; settings: ref Asan hospital, cited from earlier work; for MIC: ASEC 7 (ESBL), resistance information of clinical isolate; for susceptibility category: ASEC 7
MDR E. coli ASEC 19 [1] = tested on: MDR E. coli ASEC 19; design: method as in Asan hospital; key to susceptibility category: S: susceptible; R: resistant; I: intermediate; settings: ref Asan hospital, cited from earlier work; for MIC: ASEC 19 (AmpC), resistance information of clinical isolate; for susceptibility category: ASEC 19
MDR E. coli ASEC 15 = tested on: MDR E. coli ASEC 15; design: method as in Asan hospital; key to susceptibility category: S: susceptible; R: resistant; I: intermediate; settings: ref Asan hospital, cited from earlier work; for MIC: ASEC 15 (AmpC), resistance information of clinical isolate; for susceptibility category: ASEC 15
MDR E. coli ASEC 18 = tested on: MDR E. coli ASEC 18; design: method as in Asan hospital; key to susceptibility category: S: susceptible; R: resistant; I: intermediate; settings: ref Asan hospital, cited from earlier work; for MIC: ASEC 18 (AmpC), resistance information of clinical isolate; for susceptibility category: ASEC 18
MDR E. coli ASEC 13 = tested on: MDR E. coli ASEC 13; design: method as in Asan hospital; key to susceptibility category: S: susceptible; R: resistant; I: intermediate; settings: ref Asan hospital, cited from earlier work; for MIC: ASEC 13 (AmpC), resistance information of clinical isolate; for susceptibility category: ASEC 13
MDR E. coli ASEC 11 = tested on: MDR E. coli ASEC 11; design: method as in Asan hospital; key to susceptibility category: S: susceptible; R: resistant; I: intermediate; settings: ref Asan hospital, cited from earlier work; for MIC: ASEC 11 (ESBL), resistance information of clinical isolate; for susceptibility category: ASEC 11
MDR E. coli ASEC 3 [2] = tested on: MDR E. coli ASEC 3; design: method as in Asan hospital; key to susceptibility category: S: susceptible; R: resistant; I: intermediate; settings: ref Asan hospital, cited from earlier work; for MIC: ASEC 3 (NDM-5), resistance information of clinical isolate; for susceptibility category: ASEC 3
MDR E. coli ASEC 19 [3] = test: microbe, parasite or virus in culture; assay type: cell-based, Escherichia coli; settings: microdilution, LB, 18 to 24 h, 37°C, three independent experiments
Method: (§1) Bacterial cells were cultured at 37°C in the appropriate culture media with shaking (180 rpm). Luria-Bertani broth (LB) (244620; BD Difco) was used for E. coli ATCC 25922, ASEC strains, and B. subtilis KCTC 2217. Nutrient broth (NB) (234000; BD Difco) was used for P. aeruginosa ATCC 27853, S. Typhimurium KCTC 1926, and A. baumannii KCTC 2508. Tryptic soy broth (TSB) (211825; BD Difco) was used for S. aureus ATCC 25923. Finally, brain heart infusion (BHI) (237500; BD Difco) was used for L. monocytogenes KCTC 3710. The antimicrobial activity of each peptide was determined using microdilution assays. To this end, 2-fold serial dilution series of each peptide (from 1 to 64 μM) were added to duplicate media with 10 mM sodium phosphate buffer (pH 7.4). Fifty microliters of the peptide and antibiotic solution was added to each well of a 96-well plate (32096, surface nontreatment; SPL Life Sciences). Then, 50 μL of 2 × 10^5 CFU mL^−1 of bacteria was added to each well, and the samples were incubated for 18 to 24 h without shaking at 37°C.

MDR E. coli ASEC 3 [4] = test: microbe, parasite or virus in culture; assay type: cell-based, Escherichia coli; settings: microdilution, LB, 18 to 24 h, 37°C, three independent experiments
Method: as §1

MDR E. coli ASEC 14 = tested on: MDR E. coli ASEC 14; design: method as in Asan hospital; key to susceptibility category: S: susceptible; R: resistant; I: intermediate; settings: ref Asan hospital, cited from earlier work; for MIC: ASEC 14 (AmpC), resistance information of clinical isolate; for susceptibility category: ASEC 14
[5] = tested on: E. coli – Ceftazidime (Passage 25); test: microbe, parasite or virus in culture; assay type: cell-based, Escherichia coli
Method: (§2) E. coli ATCC 25922 cells were incubated overnight at 37°C in LB medium with shaking (180 rpm) and then adjusted to 2 × 10^5 CFU mL^−1; 0.5× MIC of PN5 and antibiotics were added to the medium and cultured overnight at 37°C with aeration (180 rpm). The MIC was determined by measuring the OD600 using a Versa Max microplate reader. On the next day, to measure the MIC with the bacteria grown after treatment with 0.5× MIC, the bacteria and antibiotic were adjusted to the same concentration, and the bacteria were cultured by adding 0.5× MIC in the same manner. The initial culture was continuously cultured for 25 passages in this manner.

[6] = tested on: E. coli – Meropenem (Passage 25); test: microbe, parasite or virus in culture; assay type: cell-based, Escherichia coli
Method: as §2

E. coli ATCC 25922 = test: microbe, parasite or virus in culture; assay type: cell-based, Escherichia coli; settings: for MIC: Escherichia coli
Method: as §2

[7] = Escherichia coli, read-out: MIC
[8] = Escherichia coli, read-out: MIC, value in parentheses
[9] = E. coli ATCC 25922 passaged with 0.5× MIC of the same agent
[10] = ATCC25922, read-out: MIC after 25 passages
[11] = ATCC25922, read-out: MIC at passage 1

Row | Molecule | MIC (MDR E. coli ASEC 6) [µg/mL] | susceptibility category (MDR E. coli ASEC 6) | MIC (MDR E. coli ASEC 12) [µg/mL] | susceptibility category (MDR E. coli ASEC 12) | MIC (MDR E. coli ASEC 9) | susceptibility category (MDR E. coli ASEC 9) | MIC (MDR E. coli ASEC 5) | susceptibility category (MDR E. coli ASEC 5) | MIC (MDR E. coli ASEC 7) | susceptibility category (MDR E. coli ASEC 7) | MIC (MDR E. coli ASEC 19 [1]) | susceptibility category (MDR E. coli ASEC 19 [1]) | MIC (MDR E. coli ASEC 15) | susceptibility category (MDR E. coli ASEC 15) | MIC (MDR E. coli ASEC 18) | susceptibility category (MDR E. coli ASEC 18) | MIC (MDR E. coli ASEC 13) [µg/mL] | susceptibility category (MDR E. coli ASEC 13) | MIC (MDR E. coli ASEC 11) | susceptibility category (MDR E. coli ASEC 11) | further results
1 | CO/N=C(\C(=O)N[C@@H]1C(=O)N2C(C(=O)O)=C(COC(C)=O)CS[C@H]12)c1csc(N)n1 [Cefotaxime] | > 32 | R | > 32 | R | > 32 µg/mL | R | > 32 µg/mL | R | > 32 µg/mL | R | > 32 µg/mL | R | > 32 µg/mL | R | 32 µg/mL (≈ 70.3 µM) | R | > 32 | R | > 32 µg/mL | R | MIC (MDR E. coli ASEC 3 [2]): > 32 µg/mL; susceptibility category (MDR E. coli ASEC 3 [2]): R; MIC (MDR E. coli ASEC 19 [3]; [7]): > 32 µM; MIC (MDR E. coli ASEC 3 [4]; [7]): > 32 µM; MIC (MDR E. coli ASEC 14): > 32 µg/mL; susceptibility category (MDR E. coli ASEC 14): R
2 | CC(C)(O/N=C(\C(=O)N[C@@H]1C(=O)N2C(C(=O)[O-])=C(C[n+]3ccccc3)CS[C@H]12)c1csc(N)n1)C(=O)O [Ceftazidime] | > 16 | R | 16 (≈ 29.3 µM) | R | > 16 µg/mL | R | > 16 µg/mL | R | > 16 µg/mL | R | > 16 µg/mL | R | > 16 µg/mL | R | > 16 µg/mL | R | > 16 | R | > 16 µg/mL | R | MIC ([5]; Escherichia coli, ATCC25922): 128 µM (≈ 70 µg/mL); MIC [5, 8]: 0.25 µM (≈ 0.137 µg/mL); MIC ([6]; Escherichia coli, ATCC25922): 0.25 µM (≈ 0.137 µg/mL); MIC [6, 8]: 0.25 µM (≈ 0.137 µg/mL); fold increase of MIC after 25 passages (E. coli ATCC 25922; [9]): 512 fold; MIC (E. coli ATCC 25922; [10]): 128 µM (≈ 70 µg/mL); MIC (E. coli ATCC 25922; [11]): 0.25 µM (≈ 0.137 µg/mL); MIC (MDR E. coli ASEC 3 [2]): > 16 µg/mL; susceptibility category (MDR E. coli ASEC 3 [2]): R; MIC (MDR E. coli ASEC 19 [3]; [7]): > 32 µM; MIC (MDR E. coli ASEC 3 [4]; [7]): > 32 µM; MIC (MDR E. coli ASEC 14): > 16 µg/mL; susceptibility category (MDR E. coli ASEC 14): R
3 | C[C@@H](O)[C@H]1C(=O)N2C(C(=O)O)=C(S[C@@H]3CN[C@H](C(=O)N(C)C)C3)[C@H](C)[C@H]12 [Meropenem] | > 8 | R | > 8 | R | <= 1 μg mL-1 | S | <= 4 μg mL-1 | S | <= 1 μg mL-1 | S | <= 1 μg mL-1 | S | <= 1 μg mL-1 | S | <= 1 μg mL-1 | S | > 8 | R | <= 1 μg mL-1 | S | MIC ([5]; Escherichia coli, ATCC25922): 0.0312 µM (≈ 0.012 µg/mL); MIC [5, 8]: 0.0312 µM (≈ 0.012 µg/mL); MIC ([6]; Escherichia coli, ATCC25922): 0.25 µM (≈ 0.0959 µg/mL); MIC [6, 8]: 0.0312 µM (≈ 0.012 µg/mL); fold increase of MIC after 25 passages (E. coli ATCC 25922; [9]): 8 fold; MIC (E. coli ATCC 25922; [10]): 0.25 µM (≈ 0.0959 µg/mL); MIC (E. coli ATCC 25922; [11]): 0.0312 µM (≈ 0.012 µg/mL); MIC (MDR E. coli ASEC 3 [2]): > 8 µg/mL; susceptibility category (MDR E. coli ASEC 3 [2]): R; MIC (MDR E. coli ASEC 19 [3]; [7]): 8 µM (≈ 3.07 µg/mL); MIC (MDR E. coli ASEC 3 [4]; [7]): > 32 µM; MIC (MDR E. coli ASEC 14): 8 µg/mL (≈ 20.9 µM); susceptibility category (MDR E. coli ASEC 14): R
4 | FKFLARTGKFL-NH2 [PN5] |  |  |  |  |  |  |  |  |  |  |  |  |  |  |  |  |  |  |  |  | MIC ([5]; E. coli ATCC 25922 with resistance induced by ceftazidime, passage 25, three independent experiments): 16 µM; MIC ([6]; E. coli ATCC 25922 with resistance induced by meropenem, passage 25, three independent experiments): 16 µM; MIC after 25 passages (E. coli ATCC 25922; [9]): 16 µM; MIC (MDR E. coli ASEC 19 [3]): 8 (10.61) μM; MIC (MDR E. coli ASEC 3 [4]): 8 (10.61) μM
